Common to all, as to type: cell-based
Data set [1] deals with recombinant NL4-3 virus (Renilla luciferase) in MT-2 cells. Briefly: HIV cell culture assay (antiviral activity, luciferase readout). The gist of the method: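 Nef-deleted NL4-3 carrying Renilla luciferase, made by transfecting 293T cells, infects MT-2 cells for 4-5 days with serial compound dilutions present. Luciferase is read with a live-cell substrate. EC50 comes from the exponential median-effect equation Fa=1/[1+(ED50/drug conc.)m].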

A short description of data set [2]: Compound cytotoxicity, XTT-based colorimetric assay. To be noted: human; uninfected MT2 cells, day 4, XTT assay. The gist of the method:
(§1)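 Run under the antiviral-assay protocol but without virus. Viability was read on day 4 and CC50 values were derived from the readout.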

The test system of another data set is uninfected MT2 cells. The description is as above. The note with it: day 4, XTT assay. The gist of the method: as §1
A general note: Tetrazolium dyes change colour on reduction, which living cells bring about.

Like-named read-outs stand apart in the source and are kept apart here.

EC50 and CC50 data for 6 compounds are collected here from US20220089598A1, “INHIBITORS OF HUMAN IMMUNODEFICIENCY VIRUS REPLICATION” (VIIV HEALTHCARE UK (No. 5) LIMITED, priority 2018, published 2022).

For the compound `O=C(Cn1ccc(C2CC2)n1)N[C@@H](Cc1cc(F)cc(F)c1)c1nc2nc(-c3ccccc3F)ccc2c(=O)n1-c1ccc(Cl)c2c(NS(=O)(=O)C3CC3)nn(CC(F)F)c12` (atropisomer, axis not shown; (P)) [Example 35, (S)—N-(1-((3P)-3-(4-chloro-3-(cyclopropanesulfonamido)-1-(2,2-difluoroethyl)-1H-indazol-7-yl)-7-(2-fluorophenyl)-4-oxo-3,4-dihydropyrido[2,3-d]pyrimidin-2-yl)-2-(3,5-difluorophenyl)ethyl)-2-(3-cyclopropyl-1H-pyrazol-1-yl)acetamide], the EC50 – broadly, the midpoint of the concentration-response curve – in data set [1] (Renilla, NL43) worked out at 0.2 nM. Also, the CC50 (as a rule, the concentration at which the toxic effect on the cells reaches its halfway point) at 4 day in data set [2] is more than 500 nM.
For the compound `CS(=O)(=O)Nc1nn(CC(F)(F)F)c2c(-n3c([C@H](Cc4cc(F)cc(F)c4)NC(=O)Cn4ccc(C5CC5)n4)nc4nc(-c5ccccc5F)ccc4c3=O)ccc(Cl)c12` (atropisomer, axis not shown; (P)) [Example 36, (S)—N-(1-((3P)-3-(4-chloro-3-(methylsulfonamido)-1-(2,2,2-trifluoroethyl)-1H-indazol-7-yl)-7-(2-fluorophenyl)-4-oxo-3,4-dihydropyrido[2,3-d]pyrimidin-2-yl)-2-(3,5-difluorophenyl)ethyl)-2-(3-cyclopropyl-1H-pyrazol-1-yl)acetamide], the EC50 in data set [1] (Renilla, NL43) was found to be 0.16 nM. The same compound returned a CC50 at 4 day in data set [2] of more than 500 nM.
Turning to `Cn1nc(NS(C)(=O)=O)c2c(Cl)ccc(-n3c([C@H](Cc4cc(F)cc(F)c4)NC(=O)Cn4nc(C(F)F)c5c4C(F)(F)[C@@H]4C[C@H]54)nc4cc(-c5ccc(F)cc5F)cnc4c3=O)c21` (atropisomer, axis not shown; (P)) [Example 37, N—((S)-1-((3P)-3-(4-chloro-1-methyl-3-(methylsulfonamido)-1H-indazol-7-yl)-7-(2,4-difluorophenyl)-4-oxo-3,4-dihydropyrido[3,2-d]pyrimidin-2-yl)-2-(3,5-difluorophenyl)ethyl)-2-((3bS,4aR)-3-(difluoromethyl)-5,5-difluoro-3b,4,4a,5-tetrahydro-1H-cyclopropa[3,4]cyclopenta[1,2-c]pyrazol-1-yl)acetamide], the EC50 in data set [1] (Renilla, NL43) is 2 nM. In data set [2], this compound registered a CC50 at 4 day of more than 500 nM.
Take `Cn1nc(NS(C)(=O)=O)c2c(Cl)ccc(-n3c([C@H](Cc4cc(F)cc(F)c4)NC(=O)Cn4nc(C(F)F)c5c4C(F)(F)[C@@H]4C[C@H]54)nc4cc(-c5ccccc5F)cnc4c3=O)c21` (atropisomer, axis not shown; (P)) [Example 38, N—((S)-1-((3P)-3-(4-chloro-1-methyl-3-(methylsulfonamido)-1H-indazol-7-yl)-7-(2-fluorophenyl)-4-oxo-3,4-dihydropyrido[3,2-d]pyrimidin-2-yl)-2-(3,5-difluorophenyl)ethyl)-2-((3bS,4aR)-3-(difluoromethyl)-5,5-difluoro-3b,4,4a,5-tetrahydro-1H-cyclopropa[3,4]cyclopenta[1,2-c]pyrazol-1-yl)acetamide]: in data set [1] (Renilla, NL43), the EC50 turned out to be 1.9 nM. Further, the CC50 at 4 day in data set [2] was more than 500 nM.
As to `Cn1nc(NS(C)(=O)=O)c2c(Cl)ccc(-n3c([C@H](Cc4cc(F)cc(F)c4)NC(=O)Cn4nc(C(F)F)c5c4C(F)(F)[C@@H]4C[C@H]54)nc4nc(-c5ccc(F)cc5F)ccc4c3=O)c21` (atropisomer, axis not shown; (P)) [Example 39, N—((S)-1-((3P)-3-(4-chloro-1-methyl-3-(methylsulfonamido)-1H-indazol-7-yl)-7-(2,4-difluorophenyl)-4-oxo-3,4-dihydropyrido[2,3-d]pyrimidin-2-yl)-2-(3,5-difluorophenyl)ethyl)-2-((3bS,4aR)-3-(difluoromethyl)-5,5-difluoro-3b,4,4a,5-tetrahydro-1H-cyclopropa[3,4]cyclopenta[1,2-c]pyrazol-1-yl)acetamide], the EC50 in data set [1] (Renilla, NL43) was determined as 0.047 nM. This compound gave a CC50 at 4 day in data set [2] of more than 500 nM.
As for `CS(=O)(=O)Nc1nn(CC(F)F)c2c(-n3c(C(Cc4cc(F)cc(F)c4)NC(=O)Cn4nc(C(F)(F)F)c5c4C(F)(F)C4CC54)nc4nc(-c5ccccc5F)ccc4c3=O)ccc(Cl)c12` [Example 32, N—((S)-1-((3P)-3-(4-chloro-1-(2,2-difluoroethyl)-3-(methylsulfonamido)-1H-indazol-7-yl)-7-(2-fluorophenyl)-4-oxo-3,4-dihydropyrido[2,3-d]pyrimidin-2-yl)-2-(3,5-difluorophenyl)ethyl)-2-((3bS,4aR)-5,5-difluoro-3-(trifluoromethyl)-3b,4,4a,5-tetrahydro-1H-cyclopropa[3,4]cyclopenta[1,2-c]pyrazol-1-yl)acetamide], in data set [1] (MT-2 cells infected for 4-5 days with recombinant NL4-3 virus, luciferase activity, read-out: EC50), the concentration for a half-maximal effect (EC50) came to 0.077 nM. For the same compound, the CC50 in the data set with uninfected MT2 cells was more than 500 nM.
